According to patent US20060229242A1, “Composition comprising a pulmonary surfactant and a pde2 inhibitor” (Altana Phazma AG, priority 2003, published 2006):

Tested on: Male Wistar rats
Assay: Rat lung lavage experiment: arterial blood oxygenation after repeated saline lung lavage
Format: in vivo
Conditions: rat lung lavage model; intratracheal, 1.2 mL, 60 min after lavage; PODPO 100 nM alone, or VENTICUTE 12.5 mgPL/kg with PODPO 100 nM (p<0.05 to p<0.001 versus VENTICUTE alone); up to 150 min
Description: (§1) Male Wistar rats were prepared according to Example 5 and lungs were ravaged 5-9 times with NaCl 0.9% (=>PaO2˜50-100 mmHg). After 60 min NaCl 0.9% (open circles), VENTICUTE 12.5 mgPL/kg (filled squares, PL=Phospholipids), PODPO (9-(6-Phenyl-2-oxohex-3-yl)-2-(3,4-dimethoxybenzyl)-purin-6-one) 100 nM (stars), or VENTICUTE 12.5 mgPL/kg in combination with PODPO 100 nM (open squares) was administered intratracheally (administration volume 1.2 mL). Arterial blood oxygenation (PaO2) was determined every 30 min up to 150 min after drug administration (t=210 min). […] Data are shown as mean±SEM. * p<0.05, *** p<0.001 versus VENTICUTE 12.5 mgPL/kg.
as §1, with “rats (220-250 g)” for “rats”, “anaesthetized, catheterised” for “prepared according”, “withdraw arterial blood,” for “Example 5”, “and ventilated with pure oxygen (=>PaO2˜500-550 mmHg). 30 min later” for “and”, “lavaged” for “ravaged”

Compound: COc1ccc(Cc2nc3c(ncn3C(CCCc3ccccc3)C(C)=O)c(=O)[nH]2)cc1OC (stereo not shown) [PODPO, 9-(6-Phenyl-2-oxohex-3-yl)-2-(3,4-dimethoxybenzyl)-purin-6-one]
- Influence on arterial blood oxygenation (PaO2), in words: no influence on oxygenation
